In patent US9994812B2, “Systems and method for engineering muscle tissue” (UNIVERSITY OF WASHINGTON THROUGH ITS CENTER FOR …, priority 2012, dated 2018):

Tests used:
Assay type in all cases: cell-based, human
[1] = system: MHY7 mutated iPSC-derived CMs; experiment: Sarcomere organization on nanotextured platforms, disease model; conditions: addition of isoproterenol
Excerpt: (§1) FIG. 34A-34D show nanotextured platforms facilitate maturation of hiPSC-derived cardiomyocytes allowing them to be used as effective disease models for drug testing against cardiomyopathies, and as in vitro cardiac disease models. […] Since nanotextures allow physiological organization of sarcomeres, it serves as a disease model to test the effect of a drug on a diseased cardiomyocyte.

[2] = system: control IMR90 cells (IMR90 hiPSC-derived cardiomyocytes); experiment: Sarcomere organization on nanotextured platforms, control cells; conditions: addition of isoproterenol
Excerpt: as §1

[3] = system: hESC-derived cardiomyocytes (hESC-CMs); experiment: High throughput cardiotoxicity profiling, live/dead imaging (Calcein-AM / EtBr); conditions: doxorubicin, 24 hrs
Protocol: FIGS. 16A-16B show high throughput cardiotoxicity profiling. To test the capacity of the ANP and system to identify cardiotoxic drugs, hESC-derived cardiomyocytes (hESC-CMs) were treated with doxorubicin for 24 hrs and then imaged using the high-throughput Applied Precision DeltaVision system.

[4] = system: hES-CM monolayers; experiment: Action potential profile of monolayers on the ANP polymer substrate
[5] = system: cardiomyocytes derived from healthy, and diseased hiPSC cells; experiment: Drug testing on ANP, action potential profile; conditions: addition of Verapamil
[6] = system: paced hiPSC-derived cardiomyocytes monolayer; experiment: Optical mapping of conduction velocity vectors and spatial activation map; conditions: 40 μM vs 0 μM
[7] = system: hESC-derived cardiomyocyte cultures; experiment: Action potential time course traces with 1 Hz pacing on the nanotextured substrate; conditions: 0, 20 and 40 μM, 4 seconds
Protocol: Representative action potential time course traces for 4 seconds in the presence of 1 Hz pacing in the presence of carboxelone, a GAP junction inhibitor at 0 μM (FIG. 19A), 20 μM (FIG. 19B), and 40 μM (FIG. 19C) are shown.

For `CC(C)NCC(O)c1ccc(O)c(O)c1` (stereo not drawn) [isoproterenol], the sarcomere organization [1] was “results in loss of sarcomere organization” and the sarcomeric organization [2] was “does not result in loss of sarcmeric organization”.

For `COc1cccc2c1C(=O)c1c(O)c3c(c(O)c1C2=O)C[C@@](O)(C(=O)CO)C[C@@H]3O[C@H]1C[C@H](N)[C@H](O)[C@H](C)O1` [doxorubicin], the “percentage of dead hESC-CMs” value [3] was “statistically significant increase”.

In the case of `COc1cc(N)c(Cl)cc1C(=O)NC1CCN(CCCOc2ccc(F)cc2)CC1OC` (stereo not drawn) [cisapride], the AP profile ([4]; K+ channel inhibitor on hES-CM monolayers) was “distortions in AP profile” and the “prolongation of action potential” value ([4]; addition of cisapride for 2 minutes) was “prolongation of action potential in a significant manner”.

With `COc1ccc(CCN(C)CCCC(C#N)(c2ccc(OC)c(OC)c2)C(C)C)cc1OC` (stereo not drawn) [Verapamil] the AP profile [5] was “causes distortions in AP profile”.

For `CC1(C)[C@@H](OC(=O)CCC(=O)O)CC[C@]2(C)[C@H]3C(=O)C=C4[C@@H]5C[C@@](C)(C(=O)O)CC[C@]5(C)CC[C@@]4(C)[C@]3(C)CC[C@@H]12` [carboxelone], the conduction velocity vectors [6] was “decrease in conduction across the tissue”, the “spatial activation map of electrical activity” value [6] was “decrease in electrical activity of the monolayer” and the “effect on action potential time course traces” value [7] was “dose dependent”.
